Assays:
[1] = Chemical stability of salt forms (change in purity by HPLC upon storage); type: physicochemical; settings: 40° C. and 75% relative humidity, 7 days, HPLC Method D
Protocol: The chemical stability of each salt form was evaluated by determining the change in purity of the sample upon storage of the salt form at 40° C.
Prior to storage, each salt form was analyzed by HPLC (Method D) to determine sample purity and in particular, to determine the amount of the following impurities present in the sample: • A. 3-[4-{N-[7-(3-(S)-1-Carbamoyl-1,1-diphenylmethyl)pyrrolidin-1-yl)hept-1-yl]-N-(isopropyl)amino}piperidin-1-ylmethyl]-4-methoxy-1-methylpyridinium Salt (Impurity A); • B. 4-{N-[7-(3-(S)-1-Carbamoyl-1,1-diphenylmethyl)pyrrolidin-1-yl)hept-1-yl]-N-(isopropyl)amino}-1-(4-oxo-1,4-dihydropyrid-3-ylmethyl)piperidine (Impurity B).
Approximately 50-100 mg of the salt form was then placed in two heat sealed low density polyethylene bags. The bags were then placed into a stability chamber that was previously set at 40° C. and 75% relative humidity. After 7 days, the bags were removed and the contents were analyzed by HPLC.

[2] = test system: rat bladder (volume-induced bladder contractions); assay: In vivo rat bladder assay (volume-induced bladder contraction amplitude); set-up: species or system Sprague-Dawley rats; settings: anesthetized female rats, intravenous, normalized to atropine response
Protocol: Female Sprague-Dawley rats (Harlan, Indianapolis, Ind.) weighing 200 to 300 g were anesthetized with urethane (1.5 g/kg, s.c., Sigma, St. Louis, Mo.), with a supplement of 0.25 g/kg, s.c. urethane as needed. Urethane was administered at a concentration of 0.25 g/mL.
Rats were prepared for surgery by shaving the neck and abdomen and cleansing with ethanol wipes. First, an incision was made on the ventral surface. An intravenous catheter was placed by isolating and ligating the femoral vein. […]
Thereafter, an intravenous dose of the test compound was administered and changes in VIBCAmp were recorded for 15 minutes. Atropine (0.1 mg/kg) was then administered intravenously (1 mL/kg) as a positive control and VIBCAmp and data was recorded for an additional 15 minutes. […]
Alternatively, after the vehicle, increasing cumulative intravenous doses of the test compound were administered at 15 minute intervals (1 mL/kg) and changes in VIBCAmp were recorded for 15 minutes. […]
The average VIBCAmp during the 5-15 minute period after test compound and atropine was determined and subtracted from the average VIBCAmp during the 5-15 minute post-vehicle period to obtain the test compound or atropine-induced change in VIBCAmp. […]

COc1ccncc1CN1CCC(N(CCCCCCCN2CC[C@@H](C(C(N)=O)(c3ccccc3)c3ccccc3)C2)C(C)C)CC1 [Example 6]
% Change in Impurity A [1]: <0.1% | % Change in Impurity B [1]: <0.1% | % Change in Purity of Salt ([1]; heat sealed polyethylene bags): 1.2% | ID50 (dose required to produce 50% of the maximal response), VIBCAmp [2]: less than or equal to 0.1 mg/kg

— patent publication US20050113413A1, “Naphthalene-1,5-disulfonic acid salts of a substituted 4-amino-1-(pyridylmethyl)piperidine compound” (priority 2003, published 2005)
